Laboratory results reported in patent US20070227930A1, “Antimicrobial Product Combination” (priority 2006, published 2007).

Tested on: allergens
Experiment: Evaluation of oxidants and antimicrobials for allergen deactivating ability
Conditions: very dilute solution, on the order of 40-80 ppm
Description: Presumably the low levels of oxidant are still able to break up the allergen proteins, rendering them biologically inert.

Structure (SMILES): OCl [hypochlorous acid]
- Allergen deactivating ability: effectively deactivate allergens
